Common to all, as to assay type: biochemical
Assay [1] deals with TYK2 (Homo sapiens (Human), UniProt P29597). The assay can be described thus: JAK Caliper Enzyme Assay at 1 mM ATP, TYK2. The procedure: (§1) Compounds of the invention were evaluated by in vitro methods to determine their respective ability to inhibit the JAK kinases (TYK2, JAK1, JAK2, JAK3).
(§2) The human JAK inhibitory activity was determined by using a microfluidic assay to monitor phosphorylation of a synthetic peptide by the recombinant human kinase domain of each of the four members of the JAK family, JAK1, JAK2, JAK3 and TYK2. […] Each assay condition was optimized for enzyme concentration and room temperature incubation time to obtain a conversion rate of 20% to 30% phosphorylated peptide product. Reactions were terminated by the addition of stop buffer containing EDTA. Utilizing the LabChip 3000 mobility shift technology (Caliper Life Science), each assay reaction was sampled to determine the level of phosphorylation. This technology is separation-based, allowing direct detection of fluorescently labeled substrates and products. Separations are controlled by a combination of vacuum pressure and electric field strength optimized for each peptide substrate.
(§3) JAK Caliper Enzyme Assay at 1mM ATP
(§4) Compounds were added to a 384-well plate.
(§5) The data was collected using the HTS Well Analyzer software from Caliper Life Sciences. The data output for data analysis is the percent product converted calculated on peak height (Equation 1). % product converted=100*((product)/(product+substrate)) Equation 1: […]
(§6) The percent effect at each compound concentration was calculated based on the positive and negative control well contained within each assay plate (Equation 2). […] The negative control wells contained DMSO alone (at the same concentration as the compound wells) that was used to set the baseline activity in the assay (i.e., uninhibited JAK1, JAK2, JAK3 or TYK2). % effect=100*([…](positive control-negative control)) Equation 2: […]
(§7) The percent effect was plotted against the compound concentration compound.

Assay [2] concerns the target JAK1 (Homo sapiens (Human), UniProt P23458). In words: JAK Caliper Enzyme Assay at 1 mM ATP, JAK1. The procedure: as §1, §2, §3, §4, §5, §6, §7
Assay [3] addresses JAK3 (Homo sapiens (Human), UniProt P52333). In words: JAK Caliper Enzyme Assay at 1 mM ATP, JAK3. The procedure: as §1, §2, §3, §4, §5, §6, §7

The text below walks through data of patent US11254668B2, “Pyrazolo[1,5-A]pyrazin-4-yl and related derivatives” (Pfizer Inc., priority 2017, dated 2022).

Molecules are shown by their SMILES. Read-outs that look alike come from different tables or passages of the source.

As usually defined, the IC50 is the concentration at which inhibition is half-maximal.

Chain of TYK2 (P29597 897-1176): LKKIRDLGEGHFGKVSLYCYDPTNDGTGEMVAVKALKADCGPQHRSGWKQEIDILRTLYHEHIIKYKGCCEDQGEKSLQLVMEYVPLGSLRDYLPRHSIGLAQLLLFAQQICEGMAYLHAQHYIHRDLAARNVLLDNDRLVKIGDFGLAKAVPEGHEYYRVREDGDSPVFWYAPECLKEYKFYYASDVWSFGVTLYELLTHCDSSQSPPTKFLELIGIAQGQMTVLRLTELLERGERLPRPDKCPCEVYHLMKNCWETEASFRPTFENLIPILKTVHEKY
Chain of JAK1 (P23458 875-1153): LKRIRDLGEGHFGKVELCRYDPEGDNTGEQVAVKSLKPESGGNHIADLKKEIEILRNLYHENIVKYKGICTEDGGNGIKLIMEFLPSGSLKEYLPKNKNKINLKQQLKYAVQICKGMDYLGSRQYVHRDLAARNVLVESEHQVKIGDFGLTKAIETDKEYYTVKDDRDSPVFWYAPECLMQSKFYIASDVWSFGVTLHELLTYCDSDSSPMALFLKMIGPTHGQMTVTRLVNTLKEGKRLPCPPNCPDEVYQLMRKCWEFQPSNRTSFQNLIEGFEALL
Chain of JAK3 (P52333 822-1111): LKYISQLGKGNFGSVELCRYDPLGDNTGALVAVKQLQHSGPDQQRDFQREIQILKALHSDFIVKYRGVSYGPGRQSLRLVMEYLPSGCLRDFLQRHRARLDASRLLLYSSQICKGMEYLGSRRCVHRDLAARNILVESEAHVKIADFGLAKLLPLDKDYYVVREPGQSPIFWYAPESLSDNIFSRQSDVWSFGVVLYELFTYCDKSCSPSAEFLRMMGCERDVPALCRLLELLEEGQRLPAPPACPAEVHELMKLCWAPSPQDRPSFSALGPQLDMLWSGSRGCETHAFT

Turning to `N#CCC1(n2ccc(-c3nc(-c4ncc[nH]4)cc4ncccc34)n2)CN(CC(F)(F)F)C1` [Example 148, [3-{3-[7-(1H-imidazol-2-yl)-1,6-naphthyridin-5-yl]-1H-pyrazol-1-yl}-1-(2,2,2-trifluoroethyl)azetidin-3-yl]acetonitrile], the figures for the IC50 in assay [1], in assay [2] and in assay [3] were 235 nM, 8800 nM and more than 10000 nM, respectively.

Consider `Cn1cnc(-c2cc3ncccc3c(-c3ccn(C4(CC#N)CN(CC(F)(F)F)C4)n3)n2)c1` [Example 149, [3-{3-[7-(1-methyl-1H-imidazol-4-yl)-1,6-naphthyridin-5-yl]-1H-pyrazol-1-yl}-1-(2,2,2-trifluoroethyl)azetidin-3-yl]acetonitrile], for which the IC50 was 125 nM in assay [1], more than 10000 nM in assay [2] and more than 10000 nM in assay [3].

In the case of `N#CCC1(n2ccc(-c3nc(-c4cnn(C5CCCCO5)n4)cc4ncccc34)n2)CN(CC(F)(F)F)C1` (stereo not drawn) [Example 155, [3-(3-{7-[2-(tetrahydro-2H-pyran-2-yl)-2H-1,2,3-triazol-4-yl]-1,6-naphthyridin-5-yl}-1H-pyrazol-1-yl)-1-(2,2,2-trifluoroethyl)azetidin-3-yl]acetonitrile], the IC50 in assay [1] is 312 nM; in assay [2], 6460 nM; in assay [3], more than 10000 nM.

Consider `N#CCC1(n2ccc(-c3nc(-c4cccnc4)cc4ncccc34)n2)CN(CC(F)(F)F)C1` [Example 171, [3-{3-[7-(pyridin-3-yl)-1,6-naphthyridin-5-yl]-1H-pyrazol-1-yl}-1-(2,2,2-trifluoroethyl)azetidin-3-yl]acetonitrile], for which the IC50 was 66 nM in assay [1], 2730 nM in assay [2] and more than 10000 nM in assay [3].

Turning to `CS(=O)(=O)N1CC(CC#N)(n2ccc(-c3nc(-c4cccc(O)n4)cc4ncccc34)n2)C1` [Example 180, [3-{3-[7-(6-hydroxypyridin-2-yl)-1,6-naphthyridin-5-yl]-1H-pyrazol-1-yl}-1-(methylsulfonyl)azetidin-3-yl]acetonitrile], the 50% inhibitory concentration (IC50) in assay [1] was 42 nM; in assay [2] it was 3740 nM; in assay [3], more than 10000 nM.

In the case of `CS(=O)(=O)N1CC(CC#N)(n2ccc(-c3nc(-c4ccnc(O)c4)cc4ncccc34)n2)C1` [Example 186, [3-{3-[7-(2-hydroxypyridin-4-yl)-1,6-naphthyridin-5-yl]-1H-pyrazol-1-yl}-1-(methylsulfonyl)azetidin-3-yl]acetonitrile], the IC50 was 74 nM in assay [1], 4860 nM in assay [2] and more than 10000 nM in assay [3].

For the compound `COc1nc(-c2cc3ncccc3c(-c3ccn([C@]4(CC#N)C[C@H](C#N)C4)n3)n2)ccc1N` [Example 223, cis-3-{3-[7-(5-amino-6-methoxypyridin-2-yl)-1,6-naphthyridin-5-yl]-1H-pyrazol-1-yl}-3-(cyanomethyl)cyclobutanecarbonitrile], the concentration for half-maximal inhibition (IC50) in assay [1] was 15 nM; in assay [2] it was 365 nM; in assay [3] it was more than 10000 nM.

`N#CC[C@]1(n2ccc(-c3nc(-c4ccc(N)c(C(N)=O)n4)cc4ncccc34)n2)C[C@H](C#N)C1` [Example 224, 3-amino-6-(5-{1-[cis-3-cyano-1-(cyanomethyl)cyclobutyl]-1H-pyrazol-3-yl}-1,6-naphthyridin-7-yl)pyridine-2-carboxamide]: the IC50 in assay [1] was 45 nM; in assay [2], 1940 nM; in assay [3] it was more than 10000 nM.

For the compound `N#CC[C@]1(n2ccc(-c3nc(-c4ccc(N)c(C(N)=O)n4)cc4ncccc34)n2)C[C@@H](C#N)C1` [Example 225, 3-amino-6-(5-{1-[trans-3-cyano-1-(cyanomethyl)cyclobutyl]-1H-pyrazol-3-yl}-1,6-naphthyridin-7-yl)pyridine-2-carboxamide], the concentration for half-maximal inhibition (IC50) in assay [1] is 9 nM; in assay [2], 215 nM; in assay [3], more than 10000 nM.

Turning to `N#CCC1(n2ccc(-c3nc(-c4ccnnc4)cc4ncccc34)n2)CN(CC(F)(F)F)C1` [Example 233, [3-{3-[7-(pyridazin-4-yl)-1,6-naphthyridin-5-yl]-1H-pyrazol-1-yl}-1-(2,2,2-trifluoroethyl)azetidin-3-yl]acetonitrile], the IC50 is 347 nM in assay [1], 9580 nM in assay [2] and more than 10000 nM in assay [3].

On to `CS(=O)(=O)Nc1ccc(-c2cc3ncccc3c(-c3ccn([C@]4(CC#N)C[C@@H](C#N)C4)n3)n2)cc1` [Example 256, N-[4-(5-{1-[cis-3-cyano-1-(cyanomethyl)cyclobutyl]-1H-pyrazol-3-yl}-1,6-naphthyridin-7-yl)phenyl]methanesulfonamide], for which the IC50 is 11 nM in assay [1], 12 nM in assay [2] and 454 nM in assay [3].

As for `CS(=O)(=O)Nc1ccc(-c2cc3ncccc3c(-c3ccn([C@]4(CC#N)C[C@H](C#N)C4)n3)n2)cc1` [Example 257, N-[4-(5-{1-[trans-3-cyano-1-(cyanomethyl)cyclobutyl]-1H-pyrazol-3-yl}-1,6-naphthyridin-7-yl)phenyl]methanesulfonamide], the IC50 turned out to be 20 nM in assay [1], 110 nM in assay [2] and 6420 nM in assay [3].

Consider `CS(=O)(=O)N1CC(CC#N)(n2ncc(-c3cc(-c4cc[nH]n4)cc4ncccc34)n2)C1` [Example 298, [1-(methylsulfonyl)-3-{4-[7-(1H-pyrazol-3-yl)quinolin-5-yl]-2H-1,2,3-triazol-2-yl}azetidin-3-yl]acetonitrile], for which the half-inhibitory concentration (IC50) in assay [1] is 23 nM; in assay [2], 594 nM; in assay [3], more than 10000 nM.

As for `N#CCC1(n2ncc(-c3cc(-c4cc[nH]n4)cc4ncccc34)n2)CN(S(N)(=O)=O)C1` [Example 300, 3-(cyanomethyl)-3-{4-[7-(1H-pyrazol-3-yl)quinolin-5-yl]-2H-1,2,3-triazol-2-yl}azetidine-1-sulfonamide], the concentration for half-maximal inhibition (IC50) was found to be 16 nM in assay [1], 291 nM in assay [2] and 3320 nM in assay [3].

In the case of `Cn1ncc(-c2cc(-c3cnn([C@]4(CC#N)C[C@@H](C#N)C4)n3)c3cccnc3c2)c1CO` [Example 328, trans-3-(cyanomethyl)-3-(4-{7-[5-(hydroxymethyl)-1-methyl-1H-pyrazol-4-yl]quinolin-5-yl}-2H-1,2,3-triazol-2-yl)cyclobutanecarbonitrile], the IC50 in assay [1] was 1290 nM; in assay [2] it was more than 10000 nM; in assay [3], more than 10000 nM.

In the case of `Cn1cc(-c2cc(-c3cnn([C@]4(CC#N)C[C@H](C#N)C4)n3)c3cccnc3c2)c(N)n1` [Example 332, cis-3-{4-[7-(3-amino-1-methyl-1H-pyrazol-4-yl)quinolin-5-yl]-2H-1,2,3-triazol-2-yl}-3-(cyanomethyl)cyclobutanecarbonitrile], the half-inhibitory concentration (IC50) in assay [1] is 16 nM; in assay [2], 1690 nM; in assay [3], more than 10000 nM.

Consider `Cn1cc(-c2cc(-c3cnn([C@]4(CC#N)C[C@@H](C#N)C4)n3)c3cccnc3c2)c(N)n1` [Example 333, trans-3-{4-[7-(3-amino-1-methyl-1H-pyrazol-4-yl)quinolin-5-yl]-2H-1,2,3-triazol-2-yl}-3-(cyanomethyl)cyclobutanecarbonitrile], for which the figures for the half-maximal inhibitory concentration (IC50) in assay [1], in assay [2] and in assay [3] were 31 nM, 5870 nM and more than 10000 nM, respectively.

Take `N#CC[C@]1(n2ncc(-c3cc(-c4cccc(C(N)=O)n4)cc4ncccc34)n2)C[C@H](C#N)C1` [Example 349, 6-(5-{2-[trans-3-cyano-1-(cyanomethyl)cyclobutyl]-2H-1,2,3-triazol-4-yl}quinolin-7-yl)pyridine-2-carboxamide]: the results for the IC50 in assay [1], in assay [2] and in assay [3] were 17 nM, 738 nM and more than 10000 nM, respectively.

On to `N#CC[C@]1(n2ncc(-c3cc(-c4cccc(C(N)=O)n4)cc4ncccc34)n2)C[C@H](C#N)C1` [Example 350, 6-(5-{2-[cis-3-cyano-1-(cyanomethyl)cyclobutyl]-2H-1,2,3-triazol-4-yl}quinolin-7-yl)pyridine-2-carboxamide], for which the IC50 in assay [1] is 7 nM; in assay [2], 97 nM; in assay [3] it was 2470 nM.

For the compound `N#CC[C@]1(n2ncc(-c3cc(-c4cnc(N)nc4)cc4ncccc34)n2)C[C@@H](C#N)C1` [Example 394, cis-3-{4-[7-(2-aminopyrimidin-5-yl)quinolin-5-yl]-2H-1,2,3-triazol-2-yl}-3-(cyanomethyl)cyclobutanecarbonitrile], the IC50 in assay [1] (JAK Caliper enzyme assay) was 1030 nM; in assay [2] (JAK Caliper enzyme assay), 8560 nM; in assay [3] (JAK Caliper enzyme assay) it was more than 10000 nM.

Take `CS(=O)(=O)N1CC(CC#N)(n2ncc(-c3cc(-c4c[nH]c5nccc-5c4)cc4ncccc34)n2)C1` [Example 415, [1-(methylsulfonyl)-3-{4-[7-(7H-pyrrolo[2,3-b]pyridin-5-yl)quinolin-5-yl]-2H-1,2,3-triazol-2-yl}azetidin-3-yl]acetonitrile]: the half-inhibitory concentration (IC50) is 1090 nM in assay [1] (JAK Caliper enzyme assay), more than 10000 nM in assay [2] (JAK Caliper enzyme assay) and more than 10000 nM in assay [3] (JAK Caliper enzyme assay).
